Source: US20110065796A1 (SHIRE LLC, priority 2009, published 2011)

Assays:
[1] = Prodrug stability in simulated intestinal fluid; details: 37° C., pH 6.8, HPLC
Protocol: (§1) The remaining concentrations of the prodrugs were then assayed by H PLC.

[2] = Prodrug stability in simulated gastric fluid; details: 37° C., pH 1.1, HPLC
Protocol: as §1

SMILES | % prodrug remaining following incubation for 2 h in simulated intestinal fluid pH 6.8 [1] [%] | % prodrug remaining following incubation for 1 h in simulated gastric fluid pH 1.1 [2] [%]
O=C(O)CC1N=C(NC(=O)Cc2c(Cl)cccc2Cl)NC1=O (centres unmarked) [Compound 4, Guanfacine Fumaryl Cyclic Adduct] | 84 | 97
N=C(NC(=O)CC[C@H](NC(=O)[C@@H]1CCC(=O)N1)C(=O)O)NC(=O)Cc1c(Cl)cccc1Cl [Compound 6, Guanfacine ((S)-γ-Glutamate-(S)-Pyroglutamic acid) Amide] | 98 | 81
N=C(NC(=O)Cc1c(Cl)cccc1Cl)NC(=O)NC(C(=O)O)c1ccccc1 (centres unmarked) [Compound 8, Guanfacine Phenylglycine Urea] | 100 | 96
N=C(NC(=O)CCNC(=O)[C@@H]1CCC(=O)N1)NC(=O)Cc1c(Cl)cccc1Cl [Compound 10, Guanfacine (β-Alanine-(S)-Pyroglutamic acid) Amide] | 112 | 82
CN1CC(=O)N=C1NC(=O)Cc1c(Cl)cccc1Cl [Compound 12, Guanfacine-Sarcosine Cyclic Adduct] | 87 | 48
N=C(NC(=O)Cc1c(Cl)cccc1Cl)NC(=O)Oc1ccc(C[C@H](N)C(=O)O)cc1 [Compound 13, Guanfacine (S)-Tyrosine Carbamate] | 81 | 74
N=C(NC(=O)Cc1c(Cl)cccc1Cl)NC(=O)O[C@@H]1CN[C@H](C(=O)O)C1 [Compound 14, Guanfacine (S,S)-4-Hydroxyproline Carbamate] | 108 | 70
CC(=O)N[C@@H](COC(=O)NC(=N)NC(=O)Cc1c(Cl)cccc1Cl)C(=O)O [Compound 15, Guanfacine Acetyl-(S)-Serine Carbamate] | 112 | 83
N=C(NC(=O)Cc1c(Cl)cccc1Cl)NC(=O)OC[C@H](NC(=O)[C@@H]1CCC(=O)N1)C(=O)O [Compound 16, Guanfacine ((S)-Serine-(S)-Pyroglutamic acid) Carbamate] | 95 | 78
CC(C)[C@@H](N)C(=O)N[C@@H](COC(=O)NC(=N)NC(=O)Cc1c(Cl)cccc1Cl)C(=O)O [Compound 18, Guanfacine ((S)-Serine-(R)-Valine) Carbamate] | 108 | 74
C[C@@H](OC(=O)NC(=N)NC(=O)Cc1c(Cl)cccc1Cl)[C@H](NC(=O)[C@@H]1CCC(=O)N1)C(=O)O [Compound 19, Guanfacine ((S)-Threonine-(S)-Pyroglutamic acid) Carbamate] | 102 | 92
CC(C)[C@H](N)C(=O)N[C@H](C(=O)O)[C@@H](C)OC(=O)NC(=N)NC(=O)Cc1c(Cl)cccc1Cl [Compound 20, Guanfacine ((S)-Threonine-(S)-Valine) Carbamate] | 100 | 79
CC(C)[C@@H](N)C(=O)N[C@H](C(=O)O)[C@@H](C)OC(=O)NC(=N)NC(=O)Cc1c(Cl)cccc1Cl [Compound 21, Guanfacine ((S)-Threonine-(R)-Valine) Carbamate] | 103 | 83
CC(C)[C@@H](N)C(=O)NCCCC(=O)NC(=N)NC(=O)Cc1c(Cl)cccc1Cl [Compound 22, Guanfacine (GABA-(R)-Valine) Amide] | 85 | 106

Second part, the compound after the results:

% prodrug remaining following incubation for 2 h in simulated intestinal fluid pH 6.8 [1] [%] | % prodrug remaining following incubation for 1 h in simulated gastric fluid pH 1.1 [2] [%] | SMILES
78 | 98 | N=C(NC(=O)CCCNC(=O)[C@@H]1CCC(=O)N1)NC(=O)Cc1c(Cl)cccc1Cl [Compound 23, Guanfacine (GABA-(S)-Pyroglutamic acid) Amide]
111 | 78 | CC(C)[C@@H](N)C(=O)NCCOC(=O)NC(=N)NC(=O)Cc1c(Cl)cccc1Cl [Compound 27, Guanfacine (Ethanolamine-(R)-Valine) Carbamate]
106 | 103 | N=C(NC(=O)Cc1c(Cl)cccc1Cl)NC(=O)OCCNC(=O)[C@@H]1CCC(=O)N1 [Compound 28, Guanfacine (Ethanolamine-(S)-Pyroglutamic acid) Carbamate]
99 | 80 | CC(C)[C@H](NC(=O)COC(=O)NC(=N)NC(=O)Cc1c(Cl)cccc1Cl)C(=O)O [Compound 29, Guanfacine (Glycolyl-(S)-Valine) Carbamate]
160 | 77 | CC(C)[C@@H](NC(=O)COC(=O)NC(=N)NC(=O)Cc1c(Cl)cccc1Cl)C(=O)O [Compound 30, Guanfacine (Glycolyl -(R)-Valine) Carbamate]
85 | 70 | CC(C)[C@@H](N)C(=O)N[C@H](CCC(=O)NC(=N)NC(=O)Cc1c(Cl)cccc1Cl)C(=O)O [Compound 31, Guanfacine ((R)-γ-Glutamate (R)-Valine) Amide]
84 | 93 | CC(C)[C@H](N)C(=O)N[C@H](CCC(=O)NC(=N)NC(=O)Cc1c(Cl)cccc1Cl)C(=O)O [Compound 32, Guanfacine ((R)-γ-Glutamate-(S)-Valine) Amide]
99 | 79 | CC(C)[C@H](NC(=O)CC(C)(C)CC(=O)NC(=N)NC(=O)Cc1c(Cl)cccc1Cl)C(=O)O [Compound 33, Guanfacine (3,3-dimethylglutaryl-(S)-Valine) Amide]
91 | 51 | O=C1CCN=C(NC(=O)Cc2c(Cl)cccc2Cl)N1 [Compound 34, Guanfacine-β-Alanine Cyclic Adduct]
108 | 83 | CC(C)[C@@H]1N=C(NC(=O)Cc2c(Cl)cccc2Cl)NC1=O [Compound 35, Guanfacine-(S)-Valine Cyclic Adduct]
101 | 83 | NCCCC[C@@H]1N=C(NC(=O)Cc2c(Cl)cccc2Cl)NC1=O [Compound 36, Guanfacine-(S)-Lysine Cyclic Adduct]
87 | 70 | NC(=O)CC[C@@H]1N=C(NC(=O)Cc2c(Cl)cccc2Cl)NC1=O [Compound 38, Guanfacine-(S)-Glutamine Cyclic Adduct]
104 | 89 | C[C@@H]1N=C(NC(=O)Cc2c(Cl)cccc2Cl)NC1=O [Compound 39, Guanfacine-(S)-AlanineCyclic Adduct]
83 | 70 | CC(C)C[C@@H](N)C(=O)N[C@@H](CCC(=O)NC(=N)NC(=O)Cc1c(Cl)cccc1Cl)C(=O)O [Compound 42, Guanfacine ((S)-γ-Glutamate-(R)-Leucine) Amide]
85 | 62 | N=C(NC(=O)CC[C@H](NC(=O)[C@H](N)CCCCN)C(=O)O)NC(=O)Cc1c(Cl)cccc1Cl [Compound 43, Guanfacine ((S)-γ-Glutamate-(R)-Lysine) Amide]
85 | 75 | CSCC[C@@H](N)C(=O)N[C@@H](CCC(=O)NC(=N)NC(=O)Cc1c(Cl)cccc1Cl)C(=O)O [Compound 44, Guanfacine ((S)-γ-Glutamate-(R)-Methionine) Amide]
91 | 74 | N=C(NC(=O)CC[C@H](NC(=O)[C@H](N)Cc1ccc(O)cc1)C(=O)O)NC(=O)Cc1c(Cl)cccc1Cl [Compound 45, Guanfacine ((S)-γ-Glutamate-(R)-Tyrosine) Amide]
81 | 61 | N=C(NC(=O)CC[C@H](NC(=O)[C@H](N)CCC(N)=O)C(=O)O)NC(=O)Cc1c(Cl)cccc1Cl [Compound 46, Guanfacine ((S)-γ-Glutamate-(R)-Glutamine) Amide]
89 | 72 | N=C(NC(=O)CC[C@H](NC(=O)[C@H](N)CO)C(=O)O)NC(=O)Cc1c(Cl)cccc1Cl [Compound 47, Guanfacine ((S)-γ-Glutamate-(R)-Serine) Amide]
101 | 87 | N=C(NC(=O)Cc1c(Cl)cccc1Cl)NC(=O)OCCNC(=O)CN [Compound 49, Guanfacine (Ethanolamine-Glycine) Carbamate]
